Measurements from patent US20130014428A1, “METHODS OF MONITORING AND CONTROLLING THE WALNUT TWIG BEETLE, PITYOPHTHORUS JUGLANDIS” (The United States of America as Represented by the …, priority 2011, published 2013).

Key:
[1] = tested on: walnut twig beetle (WTB), Pityophthorus juglandis; assay: Example 1 Field Test 3: flight response to X with and without enantiomers of trans-conophthorin; format: in vivo; details: yellow sticky card traps, Pleasanton CA
Procedure: Field Bioassays of Semiochemicals. To test the attractiveness of the various compounds of interest, some of the commercially available materials listed above were poured into 15 ml capped polyethylene bottles (Product #s A1-1050/002, A1-1055/002; Contech Enterprises Inc., Delta, British Columbia, Canada) and attached to yellow sticky card traps (Trécé, Adair, OK). In addition, synthesized (+) and (−) enantiomers of trans-conophthorin were tested in 400 μl polyethylene Eppendorf microcentrifuge tubes. Four field studies were conducted (Table 2) that tested the flight responses to: 3-methyl-2-buten-l-ol and related isomers (Field Test 1); 3-methyl-2-buten-l-ol with and without racemic trans-conophthorin (Field Test 2); 3-methyl-2-buten-l-ol with and without the purified enantiomers of trans-conophthorin (Field Test 3); and 3-methyl-2-buten-l-ol with and without racemic chalcogran (Field Test 4).
Statistical Analysis. Field Tests 1-4 were each analyzed for treatment effect by using Friedman's non-parametric analysis of variance. (See Zar, J. H. 2010. Biostatistical Analysis, 5th Ed. Pearson Prentice Hall, New Jersey). Males and females were subjected to separate analyses. All treatments within experiments yielding a significant treatment effect were compared by using an a posteriori Nemenyi test (Zar 2010) with experimentwise α=0.05. Sex ratios of responding WTB were determined using Cochran's method for unbiased sampling (See Cochran, W. G. 1977. Sampling Techniques, 3rd ed. John Wiley, New York), with 95% confidence intervals calculated by using the Clopper-Pearson method. (See Zar, J. H. 2010. Biostatistical Analysis, 5th Ed. Pearson Prentice Hall, New Jersey).

WTB [2] = assay: Baited vs unbaited funnel trap pairs in Tennessee and Virginia; format: in vivo, Pityophthorus juglandis; details: 15-80 mg/d
Procedure: The efficacy of the WTB trap bait as a detection tool was tested across the United States for a range of populations of the beetle that might be biologically heterogeneous and may occur at various densities in the landscape. The information learned from these trials was instrumental in preparing the national trapping guidelines for walnut twig beetle. […] For each state, trapping was performed in areas of known WTB infestation as well as nearby localities where WTB had not been previously detected. […]
To compare the effectiveness of the bait in the eastern range of WTB, pairs of baited and unbaited traps were located in Tennessee (3 pairs, 10 repeated measures for each pair) and Virginia (4 pairs, 12 repeated measures for each pair). […] Trap catch data were analyzed with a sign test. […]

WTB [3] = assay: Example 2 Field Test 1: X in combination with X-3 and X-2; format: in vivo, Pityophthorus juglandis; details: 4-unit Lindgren funnel traps
Procedure: Field Bioassays of 3-methyl-2-buten-1-ol in combination with other compounds. The flight response of WTB to 3-methyl-2-buten-1-ol in combination with other compounds was also tested. […] Louis, Mo. […] The five treatments were replicated in three spatial blocks and the treatments were re-randomized among the five trap stations in a block each time the traps were emptied (nearly every day). [table] Statistical Analyses. Analysis of treatment effects for the pouch vs. bottle experiment was done by using a sign test. (See Zar, J. H. 2010. Biostatistical Analysis. 5th ed. Pearson Prentice Hall, Englewood Cliffs, N.J.) The other four experiments were analyzed for treatment effect by using Friedman's non-parametric analysis of variance. Id. In all experiments, males and females were analyzed separately. All treatments within experiments yielding a significant treatment effect were compared by using an a posteriori Nemenyi test with experimentwise α=0.05. Id. For all experiments, differences among proportions of female WTB responding to treatments were analyzed by comparing 95% confidence intervals determined with the Clopper-Pearson method. Id.

[4] = X 15-60 mg/d, X-3 and X-2 1.76 mg/d, N=42

In the case of `CC(C)=CCO` [X, 3-methyl-2-buten-1-ol], the “proportion of females responding” value [1] is reported as 0.80, the “trap catches, female WTB” value ([1]; about one month in fall, N=15) is reported as 47 and the “trap catches, male WTB” value ([1]; about one month in fall, N=15) is reported as 12. For the same compound, the “WTB detected at baited traps” value (WTB [2]; Tennessee, 4-unit funnel traps, N=30) was 19.1 WTB/trap/week, the “WTB captured in baited traps” value (WTB [2]; Virginia, 12-unit funnel traps, N=48) was 42.3 WTB/trap/week and the “proportion of females responding” value (WTB [3]) was 0.77. For the same compound, the “trap catches, female WTB” value (WTB [3]; [4]) was 636 and the “trap catches, male WTB” value (WTB [3]; [4]) was 193.
